{
  "source": "patent US20090291156A1",
  "about": "“HERBAL COMPOSITION FOR SKIN CARE” (SAGITTARIUS LIFE SCIENCE CORP., priority 2008, published 2009)",
  "key": {"[1]": {"test_system": "dermal fibroblast collagen and glycosaminoglycan synthesis", "assay": "Stimulation of dermal fibroblast collagen and glycosaminoglycan synthesis (Sirius red, Safranin O, Alcian blue staining)", "assay_type": "cell-based, Human", "method": "Human foreskin dermal fibroblasts were cultured in DMEM+10% FCS+Penicillin G (100 unit/ml)/Streptomycin (100 ug/ml)+Glutamine (2 mM)+Sodium pyruvate (0.1 mM) (C-medium) under humidifying atmosphere containing 5% CO2 at 37° C.\n5×10^4 cells were plated into each well of 48 multiwell plate. Three to four days later, the cells reached confluency. The medium was replaced with fresh C-medium with or without H2O2 containing 25 ug/ml vitamin C with herbal preparations, Genistein or vitamin A. After treatment for 7 days, the cells were fixed with 10% formalin in saline, and stained with Sirius red, Safranin O or Alcian blue (at pH2.5 for hyaluronic acid staining). The relative amount of extracellular matrix deposition was estimated by visual comparison of the intensity and area of the respective stains.\nAt the end of treatments, the cells were washed twice with PBS, and were irradiated by UV (365 nm) at 20 mJ/cm^2 in PBS. Fresh serum free medium was replaced, and the cells were fixed and stained 24 hours later."}, "[2]": {"assay": "Radical scavenging activity examined by DPPH", "assay_type": "biochemical", "conditions": "0.1 mM DPPH, 30 minutes", "method": "Herbal preparations with the designated final concentrations was mixed with 0.1 mM DPPH (2,2-diphenyl-1-picrylhydrazyl), incubated at room temperature in dark for 30 minutes. Absorbance at 517 nm was read by Varian Cary 50 Tablet UV-Visible Spectrophotometer. Vitamin C and vitamin E served as positive controls."}},
  "data": [
    {"compound": "O=c1c(-c2ccc(O)cc2)coc2cc(O)cc(O)c12", "note": "[Genistein]", "values": [
      {"measurement": "effect on collagen and glycosaminoglycan synthesis (words, Table 3)", "setting": "[1]; 10 μM, in the presence of 0.1 mM H2O2", "value": "did not show significant effect"},
      {"measurement": "effect on collagen and glycosaminoglycan synthesis (words, Table 2)", "setting": "[1]; 10 uM, without H2O2", "value": "did not show significant effect"}
    ]},
    {"compound": "O=C1O[C@H]([C@@H](O)CO)C(O)=C1O", "note": "[Vit. C, Vitamin C]", "values": [
      {"measurement": "% DPPH radical scavenging", "setting": "[2]; 0.001 mM", "value": 75.0, "unit": "%"},
      {"measurement": "% DPPH radical scavenging", "setting": "[2]; 0.01 mM", "value": 99.3, "unit": "%"}
    ]},
    {"compound": "Vitamin A", "values": [
      {"measurement": "activity on collagen and glycosaminoglycan synthesis (words, FIG. 2)", "setting": "[1]; 1 μM, in the presence of 0.05 mM H2O2", "value": "did not show significant activity"},
      {"measurement": "activity on collagen and glycosaminoglycan synthesis compared to control (words, FIG. 1)", "setting": "[1]; 1 μM, without H2O2", "value": "did not show significant activity"},
      {"measurement": "effect on collagen and glycosaminoglycan synthesis (words, Table 5)", "setting": "[1]; 10 μM, UV 365 nm at 20 mJ/cm^2", "value": "did not show significant effect"},
      {"measurement": "effect on collagen and glycosaminoglycan synthesis (words, Table 4)", "setting": "[1]; 10 μM, no UV", "value": "did not show significant effect"}
    ]},
    {"compound": "vitamin E [Vit. E]", "values": [
      {"measurement": "% DPPH radical scavenging", "setting": "[2]; 0.01 mM", "value": 70.1, "unit": "%"},
      {"measurement": "% DPPH radical scavenging", "setting": "[2]; 0.1 mM", "value": 86.8, "unit": "%"}
    ]}
  ]
}
